Test results reported in patent US12662489B2 (Sitryx Therapeutics Limited, priority 2023, dated 2026).

Key:
[1] = biological target: T1, MTHFD1 recombinant human enzyme (Homo sapiens, UniProt P11586); test: MTHFD1 inhibition assay (NAD(P)H-Glo luminescence); conditions: MTHFD1 IC50, recombinant human enzyme 200 nM, NADP, band
T1 sequence (P11586 2-291 limits assumed): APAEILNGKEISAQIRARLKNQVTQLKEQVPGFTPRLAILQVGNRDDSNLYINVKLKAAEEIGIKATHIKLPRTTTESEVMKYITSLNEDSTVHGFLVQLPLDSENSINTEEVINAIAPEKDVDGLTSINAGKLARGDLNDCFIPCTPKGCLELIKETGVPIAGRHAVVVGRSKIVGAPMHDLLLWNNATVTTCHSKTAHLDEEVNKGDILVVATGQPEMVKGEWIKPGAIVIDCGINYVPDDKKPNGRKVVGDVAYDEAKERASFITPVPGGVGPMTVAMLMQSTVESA

[2] = biological target: T2, MTHFD2 recombinant human enzyme (Homo sapiens, UniProt P13995); test: MTHFD2 inhibition assay (NAD(P)H-Glo luminescence); conditions: for MTHFD1/MTHFD2 IC50 ratio: selectivity of MTHFD2 inhibition over MTHFD1, band
T2 sequence (P13995 36-350): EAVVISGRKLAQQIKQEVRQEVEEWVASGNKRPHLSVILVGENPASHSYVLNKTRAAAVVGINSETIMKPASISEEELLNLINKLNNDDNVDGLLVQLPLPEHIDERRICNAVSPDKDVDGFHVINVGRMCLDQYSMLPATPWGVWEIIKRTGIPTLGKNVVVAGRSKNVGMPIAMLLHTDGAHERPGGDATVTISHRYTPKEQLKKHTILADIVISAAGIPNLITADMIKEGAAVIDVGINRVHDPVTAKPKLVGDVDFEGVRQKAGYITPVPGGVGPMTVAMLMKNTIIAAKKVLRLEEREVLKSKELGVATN

| Compound | IC50 [1] [nM] | IC50 [2] [nM] | MTHFD1/MTHFD2 IC50 ratio [2] |
| --- | --- | --- | --- |
| CCOc1c(C(=O)NS(=O)(=O)N2CC3CC3C2)ccc(C(=O)N2CCc3c(c(=O)oc4c(CC)c(N5CCN(C)[C@@H](COC)C5)ccc34)C2)c1F (stereo partly drawn) [Example 214, N-((3-azabicyclo[3.1.0]hexan-3-yl)sulfonyl)-2-ethoxy-4-(7-ethyl-8-((R)-3-(methoxymethyl)-4-methylpiperazin-1-yl)-5-oxo-1,3,4,5-tetrahydro-2H-chromeno[3,4-c]pyridine-3-carbonyl)-3-fluorobenzamide] | 10 to 100 | 10 to 100 | F (<3) |
| COC[C@H]1CN(c2cc(C)c3c4c(c(=O)oc3c2C)CN(C(=O)c2ccc(C(=O)NS(=O)(=O)N(C)C)c(N3CC5CC5C3)c2F)CC4)CCN1C (stereo partly drawn) [Example 72, 2-(3-azabicyclo[3.1.0]hexan-3-yl)-N-(N,N-dimethylsulfamoyl)-3-fluoro-4-(8-((R)-3-(methoxymethyl)-4-methylpiperazin-1-yl)-7,10-dimethyl-5-oxo-1,3,4,5-tetrahydro-2H-chromeno[3,4-c]pyridine-3-carbonyl)benzamide] | 1 to 10 | 1 to 10 | – |
| COC[C@H]1CN(c2cc(C)c3c4c(c(=O)oc3c2C)CN(C(=O)c2cc(N(C)C)c(C(=O)NS(=O)(=O)N3CCC[C@@H]3C(F)(F)F)cc2F)CC4)CCN1C [Example 287, 2-(dimethylamino)-5-fluoro-4-(8-((R)-3-(methoxymethyl)-4-methylpiperazin-1-yl)-7,10-dimethyl-5-oxo-1,3,4,5-tetrahydro-2H-chromeno[3,4-c]pyridine-3-carbonyl)-N-(((R)-2-(trifluoromethyl)pyrrolidin-1-yl)sulfonyl)benzamide] | 100 to 1000 | 10 to 100 | H (>9.0 to 30) |
| COC[C@H]1CN(c2cc(Cl)c3c4c(c(=O)oc3c2C)CN(C(=O)c2cc(OC3CC3)c(C(=O)NS(=O)(=O)N3C5CCC3COC5)cc2F)CC4)CCN1C [Example 307, N-((3-oxa-8-azabicyclo[3.2.1]octan-8-yl)sulfonyl)-4-(10-chloro-8-((R)-3-(methoxymethyl)-4-methylpiperazin-1-yl)-7-methyl-5-oxo-1,3,4,5-tetrahydro-2H-chromeno[3,4-c]pyridine-3-carbonyl)-2-cyclopropoxy-5-fluorobenzamide] | 1000 to 5000 | 10 to 100 | – |
| COC[C@H]1CN(c2cc(C)c3c4c(c(=O)oc3c2C)CN(C(=O)c2ccc(C(=O)NS(=O)(=O)C3(C)CC3)c(N3CCCC(F)(F)C3)c2)CC4)CCN1C [Example 75, (R)-2-(3,3-difluoropiperidin-1-yl)-4-(8-(3-(methoxymethyl)-4-methylpiperazin-1-yl)-7,10-dimethyl-5-oxo-1,3,4,5-tetrahydro-2H-chromeno[3,4-c]pyridine-3-carbonyl)-N-((1-methylcyclopropyl)sulfonyl)benzamide] | 1 to 10 | 1 to 10 | G (^ 3 to 9.0) |
| COC[C@H]1CN(c2cc(Cl)c3c4c(c(=O)oc3c2C)CN(C(=O)c2cc(N(C)C)c(C(=O)NS(=O)(=O)N3CCC5(CC5)C3)cc2F)CC4)CCN1C [Example 274, (R)-N-((5-azaspiro[2.4]heptan-5-yl)sulfonyl)-4-(10-chloro-8-(3-(methoxymethyl)-4-methylpiperazin-1-yl)-7-methyl-5-oxo-1,3,4,5-tetrahydro-2H-chromeno[3,4-c]pyridine-3-carbonyl)-2-(dimethylamino)-5-fluorobenzamide] | 100 to 1000 | 10 to 100 | H (>9.0 to 30) |
| COC[C@H]1CN(c2cc(C)c3c4c(c(=O)oc3c2C)CN(C(=O)c2cc(N(C)C)c(C(=O)NS(=O)(=O)N3CCCC3)cc2C(F)(F)F)CC4)CCN1C [Example 152, (R)-2-(dimethylamino)-4-(8-(3-(methoxymethyl)-4-methylpiperazin-1-yl)-7,10-dimethyl-5-oxo-1,3,4,5-tetrahydro-2H-chromeno[3,4-c]pyridine-3-carbonyl)-N-(pyrrolidin-1-ylsulfonyl)-5-(trifluoromethyl)benzamide] | > 5000 | 100 to 1000 | H (>9.0 to 30) |
| COC[C@H]1CN(c2cc(C)c3c4c(c(=O)oc3c2C)CN(C(=O)c2ccc(C(=O)NS(=O)(=O)N3CCCC3)c(N3CCC[C@H]3C)c2)CC4)CCN1C [Example 124, 4-(8-((R)-3-(methoxymethyl)-4-methylpiperazin-1-yl)-7,10-dimethyl-5-oxo-1,3,4,5-tetrahydro-2H-chromeno[3,4-c]pyridine-3-carbonyl)-2-((R)-2-methylpyrrolidin-1-yl)-N-(pyrrolidin-1-ylsulfonyl)benzamide] | 100 to 1000 | 100 to 1000 | F (<3) |
| CCOc1c(C(=O)NS(=O)(=O)N2CC3CCC(C3)C2)ccc(C(=O)N2CCc3c(c(=O)oc4c(C)c(N5CCN(C)[C@@H](COC)C5)ccc34)C2)c1F [Example 237] | 10 to 100 | 10 to 100 | F (<3) |
| COC[C@H]1CN(c2cc(C)c3c4c(c(=O)oc3c2C)CN(C(=O)c2ccc(C(=O)NS(=O)(=O)N(C)C)c(OC3C5CC6CC(C5)CC3C6)c2)CC4)CCN1C (stereo partly drawn) [Example 100, 2-((adamantan-2-yl)oxy)-N-(N,N-dimethylsulfamoyl)-4-(8-((R)-3-(methoxymethyl)-4-methylpiperazin-1-yl)-7,10-dimethyl-5-oxo-1,3,4,5-tetrahydro-2H-chromeno[3,4-c]pyridine-3-carbonyl)benzamide] | 10 to 100 | 10 to 100 | F (<3) |
| COC[C@H]1CN(c2cc(C)c3c4c(c(=O)oc3c2C)CN(C(=O)c2cc(F)c(C(=O)NS(=O)(=O)N3CCCC3)cc2N(C)C)CC4)CCN1C [Example 243] | 1000 to 5000 | 10 to 100 | J (>30) |
| COC[C@H]1CN(c2cc(Cl)c3c4c(c(=O)oc3c2C)CN(C(=O)c2ccc(C(=O)NS(=O)(=O)N3CC5CC5C3)c(OC)c2)CC4)CCN1C (stereo partly drawn) [Example 280, N-((3-azabicyclo[3.1.0]hexan-3-yl)sulfonyl)-4-(10-chloro-8-((R)-3-(methoxymethyl)-4-methylpiperazin-1-yl)-7-methyl-5-oxo-1,3,4,5-tetrahydro-2H-chromeno[3,4-c]pyridine-3-carbonyl)-2-methoxybenzamide] | 100 to 1000 | 10 to 100 | H (>9.0 to 30) |
| COC[C@@H]1CN(c2ccc3c4c(c(=O)oc3c2C)CN(C(=O)c2ccc(C(=O)NS(=O)(=O)N3CCCC3)c(OC3CCC3)c2F)CC4)CCN1C [Example 162, (S)-2-cyclobutoxy-3-fluoro-4-(8-(3-(methoxymethyl)-4-methylpiperazin-1-yl)-7-methyl-5-oxo-1,3,4,5-tetrahydro-2H-chromeno[3,4-c]pyridine-3-carbonyl)-N-(pyrrolidin-1-ylsulfonyl)benzamide] | 100 to 1000 | 100 to 1000 | F (<3) |
| COC[C@H]1CN(c2cc(C)c3c4c(c(=O)oc3c2C)CN(C(=O)c2ccc(C(=O)NS(=O)(=O)N(C)C)c(N3CCCC5(CC5)C3)c2)CC4)CCN1C [Example 120, (R)-N-(N,N-dimethylsulfamoyl)-4-(8-(3-(methoxymethyl)-4-methylpiperazin-1-yl)-7,10-dimethyl-5-oxo-1,3,4,5-tetrahydro-2H-chromeno[3,4-c]pyridine-3-carbonyl)-2-(5-azaspiro[2.5]octan-5-yl)benzamide] | 100 to 1000 | 10 to 100 | F (<3) |
| COC[C@H]1CN(c2cc(C)c3c4c(c(=O)oc3c2C)CN(C(=O)c2ccc(C(=O)NS(=O)(=O)N(C)C)c(OC3CCC3)c2F)CC4)CCN1C [Example 51, (R)-2-cyclobutoxy-N-(N,N-dimethylsulfamoyl)-3-fluoro-4-(8-(3-(methoxymethyl)-4-methylpiperazin-1-yl)-7,10-dimethyl-5-oxo-1,3,4,5-tetrahydro-2H-chromeno[3,4-c]pyridine-3-carbonyl)benzamide] | 1 to 10 | 1 to 10 | F (<3) |
| COC[C@H]1CN(c2cc(Cl)c3c4c(c(=O)oc3c2C)CN(C(=O)c2cc(N(C)C)c(C(=O)NS(=O)(=O)N3CC[C@H](OC)C3)cc2F)CC4)CCN1C [Example 284, 4-(10-chloro-8-((R)-3-(methoxymethyl)-4-methylpiperazin-1-yl)-7-methyl-5-oxo-1,3,4,5-tetrahydro-2H-chromeno[3,4-c]pyridine-3-carbonyl)-2-(dimethylamino)-5-fluoro-N-(((S)-3-methoxypyrrolidin-1-yl)sulfonyl)benzamide] | 100 to 1000 | 10 to 100 | H (>9.0 to 30) |
| COC[C@H]1CN(c2cc(C)c3c4c(c(=O)oc3c2C)CN(C(=O)c2ccc(C(=O)NS(=O)(=O)N(C)C)c(N3CCCC3)c2F)CC4)CCN1C [Example 70, (R)-N-(N,N-dimethylsulfamoyl)-3-fluoro-4-(8-(3-(methoxymethyl)-4-methylpiperazin-1-yl)-7,10-dimethyl-5-oxo-1,3,4,5-tetrahydro-2H-chromeno[3,4-c]pyridine-3-carbonyl)-2-(pyrrolidin-1-yl)benzamide] | 10 to 100 | 1 to 10 | G (^ 3 to 9.0) |
